Experiments:
Assay in all cases: Large panel kinase profiling
Format in all cases: biochemical
Settings in all cases: 1 μM test article, 1 mM ATP
[1] = target: T1, STK33 (Homo sapiens, UniProt Q9BYT3)
T1 construct: AssayQuant Technologies, Inc. (contract assay)
Summary of the method: (§1)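 One compound concentration (1 μM) was screened against each kinase at 1 mM ATP using PhosphoSens CSox-Sensor detection, at 30° C., with fluorescence read every 1 min (Ex 360 nm/Em 485 nm).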

[2] = target: T2, MAPK13/P38D (Homo sapiens, UniProt O15264)
T2 construct: AssayQuant Technologies, Inc. (service provider)
T2 sequence (O15264 1-365): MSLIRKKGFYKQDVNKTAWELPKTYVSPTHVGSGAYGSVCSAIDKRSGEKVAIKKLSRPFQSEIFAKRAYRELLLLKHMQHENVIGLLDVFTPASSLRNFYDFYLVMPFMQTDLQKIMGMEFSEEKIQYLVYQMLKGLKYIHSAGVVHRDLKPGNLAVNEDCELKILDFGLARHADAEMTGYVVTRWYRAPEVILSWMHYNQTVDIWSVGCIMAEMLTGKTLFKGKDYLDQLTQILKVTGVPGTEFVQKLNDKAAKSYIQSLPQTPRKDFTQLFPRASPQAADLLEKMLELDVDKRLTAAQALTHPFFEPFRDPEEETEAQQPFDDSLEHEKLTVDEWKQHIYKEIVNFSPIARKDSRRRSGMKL
Summary of the method: as §1

[3] = target: RIPK2 (Homo sapiens, UniProt O43353)
Chain of RIPK2 (O43353 whole entry, species assumed): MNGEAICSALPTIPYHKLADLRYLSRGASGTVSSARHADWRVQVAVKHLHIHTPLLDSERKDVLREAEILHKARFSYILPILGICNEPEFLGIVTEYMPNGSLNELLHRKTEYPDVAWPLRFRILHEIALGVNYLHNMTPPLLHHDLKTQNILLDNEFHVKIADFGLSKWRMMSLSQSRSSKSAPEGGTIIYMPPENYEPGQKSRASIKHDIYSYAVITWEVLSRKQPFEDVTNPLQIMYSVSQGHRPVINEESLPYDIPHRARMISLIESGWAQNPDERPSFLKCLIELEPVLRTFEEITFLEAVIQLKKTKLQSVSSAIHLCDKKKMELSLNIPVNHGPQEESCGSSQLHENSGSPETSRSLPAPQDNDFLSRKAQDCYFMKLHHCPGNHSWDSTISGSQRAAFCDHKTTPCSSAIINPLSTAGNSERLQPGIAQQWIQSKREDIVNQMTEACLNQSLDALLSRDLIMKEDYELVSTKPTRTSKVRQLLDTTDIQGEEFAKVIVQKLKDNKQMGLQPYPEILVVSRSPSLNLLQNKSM
Summary of the method: as §1

[4] = target: EPHA5 (Homo sapiens, UniProt P54756)
Chain of EPHA5 (P54756 25-1037, species assumed): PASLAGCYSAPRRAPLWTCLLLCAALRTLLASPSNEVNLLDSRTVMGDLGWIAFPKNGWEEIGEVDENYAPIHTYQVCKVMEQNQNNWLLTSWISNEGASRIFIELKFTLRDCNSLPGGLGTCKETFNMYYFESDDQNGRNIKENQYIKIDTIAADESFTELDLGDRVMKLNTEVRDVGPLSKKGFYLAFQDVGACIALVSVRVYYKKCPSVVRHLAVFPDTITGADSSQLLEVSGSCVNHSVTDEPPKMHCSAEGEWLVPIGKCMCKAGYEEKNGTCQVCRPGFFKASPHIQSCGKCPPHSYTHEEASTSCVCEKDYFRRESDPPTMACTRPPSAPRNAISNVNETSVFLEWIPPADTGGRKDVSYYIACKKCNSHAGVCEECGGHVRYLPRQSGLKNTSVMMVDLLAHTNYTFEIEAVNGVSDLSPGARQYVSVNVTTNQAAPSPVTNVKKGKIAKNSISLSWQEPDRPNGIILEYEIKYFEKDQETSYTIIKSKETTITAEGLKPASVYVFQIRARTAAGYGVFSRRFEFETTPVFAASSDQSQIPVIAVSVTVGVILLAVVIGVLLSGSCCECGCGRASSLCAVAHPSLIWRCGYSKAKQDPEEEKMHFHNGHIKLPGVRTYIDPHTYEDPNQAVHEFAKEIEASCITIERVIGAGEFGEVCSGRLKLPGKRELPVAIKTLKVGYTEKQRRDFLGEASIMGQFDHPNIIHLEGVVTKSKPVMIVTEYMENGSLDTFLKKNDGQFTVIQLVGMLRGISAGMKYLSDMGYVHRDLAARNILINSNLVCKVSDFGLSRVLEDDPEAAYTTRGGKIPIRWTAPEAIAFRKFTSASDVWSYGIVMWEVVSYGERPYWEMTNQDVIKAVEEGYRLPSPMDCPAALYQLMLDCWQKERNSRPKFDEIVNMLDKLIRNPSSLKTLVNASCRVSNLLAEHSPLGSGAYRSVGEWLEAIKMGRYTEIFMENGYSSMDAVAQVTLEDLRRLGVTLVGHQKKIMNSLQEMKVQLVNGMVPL
Summary of the method: as §1

[5] = target: T3, NEK9 (Homo sapiens, UniProt Q8TD19)
T3 construct: AssayQuant Technologies, Inc. (assay service)
T3 sequence (Q8TD19 1-979): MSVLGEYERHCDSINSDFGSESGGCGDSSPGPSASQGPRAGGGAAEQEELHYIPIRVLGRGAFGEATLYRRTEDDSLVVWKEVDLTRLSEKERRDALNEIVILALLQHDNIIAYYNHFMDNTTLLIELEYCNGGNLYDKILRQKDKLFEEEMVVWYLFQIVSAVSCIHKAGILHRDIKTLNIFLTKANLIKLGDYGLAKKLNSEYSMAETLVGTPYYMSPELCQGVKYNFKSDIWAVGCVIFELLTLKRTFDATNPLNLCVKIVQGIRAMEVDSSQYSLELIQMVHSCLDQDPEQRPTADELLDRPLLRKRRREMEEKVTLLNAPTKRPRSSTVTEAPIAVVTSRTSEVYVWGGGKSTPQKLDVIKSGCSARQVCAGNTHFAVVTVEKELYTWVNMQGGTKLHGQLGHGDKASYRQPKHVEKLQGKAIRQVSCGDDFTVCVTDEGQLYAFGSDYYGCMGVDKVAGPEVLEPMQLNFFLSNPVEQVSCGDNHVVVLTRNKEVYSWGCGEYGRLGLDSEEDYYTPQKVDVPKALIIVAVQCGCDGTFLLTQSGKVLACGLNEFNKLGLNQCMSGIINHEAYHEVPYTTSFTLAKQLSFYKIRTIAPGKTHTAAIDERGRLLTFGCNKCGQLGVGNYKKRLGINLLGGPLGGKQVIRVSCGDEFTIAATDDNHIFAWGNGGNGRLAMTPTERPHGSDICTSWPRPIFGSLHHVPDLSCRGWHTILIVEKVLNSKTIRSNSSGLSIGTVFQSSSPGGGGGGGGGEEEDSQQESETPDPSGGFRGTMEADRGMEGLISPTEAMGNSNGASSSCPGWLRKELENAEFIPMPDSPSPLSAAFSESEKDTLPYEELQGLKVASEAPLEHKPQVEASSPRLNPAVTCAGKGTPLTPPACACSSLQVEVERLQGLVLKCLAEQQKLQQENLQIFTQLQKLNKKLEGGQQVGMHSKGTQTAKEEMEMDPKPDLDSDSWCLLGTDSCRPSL
Summary of the method: as §1

T1 sequence (Q9BYT3 whole entry, species assumed): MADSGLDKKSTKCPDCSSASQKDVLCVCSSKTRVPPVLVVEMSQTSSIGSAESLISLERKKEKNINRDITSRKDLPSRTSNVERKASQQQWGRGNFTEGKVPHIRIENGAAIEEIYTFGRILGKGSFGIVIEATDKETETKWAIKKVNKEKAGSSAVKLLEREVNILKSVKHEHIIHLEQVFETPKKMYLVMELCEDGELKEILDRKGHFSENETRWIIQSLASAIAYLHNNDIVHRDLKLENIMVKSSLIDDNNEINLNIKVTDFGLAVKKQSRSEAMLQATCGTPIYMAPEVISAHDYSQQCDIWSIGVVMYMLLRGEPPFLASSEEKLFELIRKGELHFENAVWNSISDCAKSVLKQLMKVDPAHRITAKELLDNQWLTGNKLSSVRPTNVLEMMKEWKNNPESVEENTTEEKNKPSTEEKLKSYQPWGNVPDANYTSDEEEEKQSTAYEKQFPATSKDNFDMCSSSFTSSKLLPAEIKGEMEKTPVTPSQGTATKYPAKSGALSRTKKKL

Row | SMILES | inhibition at 1 µM [1] [%] | inhibition at 1 µM [2] [%] | inhibition at 1 µM [3] [%] | inhibition at 1 µM [4] [%] | inhibition at 1 µM [5] [%]
1 | C=CC(=O)N1CCCC(c2c(F)cc(C(N)=O)c3[nH]c4c(c23)CCCCC4)C1 (single isomer, unassigned) [Compound 5-6] | -7.9 | 6.7 | 7.1 | 8.1 | -9.3
2 | C=CC(=O)N1CCC[C@@H](c2c(F)cc(C(N)=O)c3[nH]c4c(c23)CC2(CC4)CC2)C1 [Compound 6-2, (S)-5-(1-acryloylpiperidin-3-yl)-6-fluoro-1,2,4,9-tetrahydrospiro[carbazole-3,1′-cyclopropane]-8-carboxamide] | -27.1 | 26 | -31.3 | 17 | 18
3 | C=CC(=O)N1CCC[C@@H](c2c(F)cc(C(N)=O)c3[nH]c4c(c23)CCC4)C1 [Compound 10-2, (S)-8-(1-acryloylpiperidin-3-yl)-7-fluoro-1,2,3,4-tetrahydrocyclo-penta[b]indole-5-carboxamide] | 20.5 | 9 | -45.4 | -13.5 | 2.4

Reference: patent publication US20220009920A1 (GB005, Inc., priority 2020, published 2022)
